{
  "source": "patent EP4699605A1",
  "about": "“USE OF NOVEL COMPOUND FOR TREATING INTRACTABLE DISEASES” (YJ Cerapeutics Inc., priority 2023, dated 2024)",
  "key": {"[1]": {"experiment": "Observation of sedation as a side effect at high doses", "type": "in vivo, rats", "conditions": "100 mg/kg"}, "[2]": {"tested_on": "inflammatory factors", "experiment": "Inflammatory factor expression in L4-5 spinal cord of SNI model (RT-PCR, Western blot)", "type": "in vivo, Sprague-Dawley rats", "conditions": "ipsilateral spinal cord tissue, 4 weeks after nerve injury, RT-PCR and Western blot", "method": "To be used as a peripheral nerve injury animal model, a sciatic nerve injury (SNI) model was prepared (FIG. 1C). Specifically, 200 to 220 g of male adult Sprague-Dawley rats were anesthetized by intraperitoneal injection of chloral hydrate (500 mg/kg), and then three terminal branches (tibial, common peroneal, and sural nerves) of the right sciatic nerve were approached, and the tibia nerve and the peroneal nerve were tightly ligated with 4-0 silk, and neurectomy was performed at a distal 3 mm position of the ligation site. At this time, a Sham group was a group that exposed only the sciatic nerve without damage.\nIt was known that when neuropathic pain occurred, the activation of microglia and astrocytes expressed inflammatory factors including cytokines and chemokines to cause excessive excitation of surrounding neurons. Therefore, in order to confirm changes in inflammatory factor expression by YJ102 administration in the SNI animal model 4 weeks after nerve injury, RNA and protein were extracted from L4-5 spinal cord tissue and RT-PCR and Western blot analysis were performed. Specifically, for RT-PCR analysis, RNA was isolated from spinal cord tissue sections using a TRIZOL Reagent (Invitrogen) according to a manual, and 20 µl of the total mixture was prepared by using 1 µg of total RNA, and cDNA was synthesized using MMLV reverse transcriptase (Invitrogen). […]"}, "[3]": {"tested_on": "JMJD3", "experiment": "Signaling pathway analysis in SNI model (Western blot): JMJD3 expression and activation", "type": "in vivo, Sprague-Dawley rats", "conditions": "4 weeks after nerve injury", "method": "To determine through which signaling pathway YJ102 inhibited a neuroinflammatory response, there was analyzed increased expression and activation of histone demethylase JMJD3 and expression changes of factors associated with JAK/STAT3 pathway, mTOR pathway, and TRPM7-mediated pathway, which were known as important regulatory mechanisms and epigenetic regulators mediating the neuroinflammatory response, in the tissues of the SNI animal model 4 weeks after nerve injury."}, "[4]": {"tested_on": "bladder wall", "experiment": "Bladder hypertrophy (H&E) and collagen content in bladder muscle (Masson's trichrome) after spinal cord injury", "type": "in vivo, Sprague-Dawley rats", "description": "As one indicator of bladder dysfunction, bladder hypertrophy, which was a thicker bladder wall, and changes in collagen content in the bladder muscle were identified. Specifically, a spinal cord injury […] animal model was perfused through the left ventricle, and fixed with 4% paraformaldehyde, and the bladder was extracted, and then embedded in an optimal cutting temperature (OCT) compound, and the tissue was sectioned at a 10 µm thickness using a cryostat. In order to measure the bladder wall thickness, Hematoxylene & Eosin (Abcam) staining was performed according to a manufacturer's protocol, and in order to measure the collagen content in the muscle, Masson's trichrome (Sigma-Aldrich) staining was performed."}, "[5]": {"tested_on": "urothelial cells", "experiment": "Urothelial cell apoptosis in bladder after SCI (TUNEL, cleaved caspase-3, UPIII Western blot)", "type": "in vivo, Sprague-Dawley rats", "conditions": "day 3 after spinal cord injury", "description": "(§1) The effect of YJ102 on urothelial cell apoptosis in bladder tissue after spinal cord injury was confirmed by TUNEL staining, and the protein levels of cleaved caspase-3 indicating caspase-3 activation, and UPIII as a urothelial marker were confirmed by Western blot analysis using p75 (Promega), cleaved caspase-3 (Cell signaling technology), and UPIII (Abcam) as primary antibodies. In addition, in order to confirm whether the mechanism of apoptosis was caused by a p75 neurotrophin receptor, which was involved in urothelial apoptosis, the expression level of p75 was confirmed by RT-PCR, Western blot analysis, and immunofluorescence staining. For RT-PCR analysis, the obtained bladder tissue sections were frozen in liquid nitrogen, and ground in a mortar and pestle to be completely lysed, and then RNA was isolated using a TRIZOL Reagent (Invitrogen) according to a manual, and 20 µl of the total mixture was prepared by using 1 µg of total RNA, and cDNA was synthesized using MMLV reverse transcriptase (Invitrogen)."}, "[6]": {"tested_on": "p75 neurotrophin receptor", "experiment": "p75 expression in urothelium after SCI (RT-PCR, Western blot)", "type": "in vivo, Sprague-Dawley rats", "conditions": "urothelium after spinal cord injury (days 1 and 7)", "description": "as §1"}, "[7]": {"tested_on": "inflammatory factors", "experiment": "Inflammatory cytokine and chemokine expression in bladder after SCI (RT-PCR, Western blot)", "type": "in vivo, Sprague-Dawley rats", "conditions": "bladder tissue after spinal cord injury", "description": "To confirm the effect of YJ102 on the expression of inflammatory factors in the bladder after spinal cord injury, the expression of inflammatory cytokines and chemokines, COX-2, iNOS, IL-6, IL-1β, MIP-1α, MIP-1β, MIP-2α, and Gro-α in bladder tissue was confirmed by RT-PCR analysis and Western blot analysis using the primers in Table 2 above. In addition, even in the Raw 264.7 cell line, the expression was verified by RT-PCR analysis."}, "[8]": {"tested_on": "IMQ psoriasis animal model", "experiment": "Epidermal layer thickness (H&E) in IMQ psoriasis animal model", "type": "in vivo, C57BL/6 mouse", "method": "Psoriasis caused by excessive production of skin cells was a chronic skin disease associated with various factors, including autoimmune diseases, and its symptoms included red and thickened skin and abnormally occurring scaling. […] Specifically, the back region of a C57BL/6 mouse (male, 18 to 20 g, 8 weeks) (Daehan Biolink, Eumseong, Korea) was shaved to remove hair, and then applied with IMQ cream (83 mg/day) (5%) for consecutive 5 days from Day 0 to Day 4 to induce psoriasis-like skin inflammation, and a normal control mouse (Sham) was applied with Vaseline cream (FIG. 16A).\nOn day 6, the skin tissue of the psoriasis mouse model was stained with Hematoxyline & Eosin, and the epidermal layer thickness was measured. Specifically, on Day 6, the skin of the mouse back was extracted, immersed in 4% paraformaldehyde for 24 hours to fix the tissue, and then paraffin blocks were made to prepare paraffin tissue sections with a thickness of 5 µm. In order to measure the thickness of the epidermal layer, paraffin tissue was stained with Hematoxylene & Eosin (Abcam) according to the manufacturer's protocol, and five sections of the epidermal layer from each mouse were photographed at 200x magnification using an optical microscope. The epidermal layer thickness was measured in tissues from a total of five mice (a total of 25 sections) and the average value was calculated."}, "[9]": {"conditions": "day 1 after spinal cord injury, H&E"}},
  "data": [
    {"smiles": "CCc1ccc(N(C(=O)COC)c2nc3cc(Cl)ccc3o2)cc1", "note": "[YJ102]", "values": [
      {"measurement": "sedation as a side effect", "setting": "[1]", "result": "not observed"},
      {"measurement": "expression of inflammatory factors", "setting": "[2]", "result": "significantly reduced"},
      {"measurement": "demethylation activation of H3K27Me3", "setting": "[3]", "result": "significantly inhibited"},
      {"measurement": "expression of JMJD3", "setting": "[3]", "result": "significantly inhibited"},
      {"measurement": "collagen content in the muscle", "setting": "[4]; after spinal cord injury, Masson's trichrome", "result": "maintained at a level almost similar to that of the normal group"},
      {"measurement": "thickness of the lamina propria", "setting": "[4]; [9]", "result": "significantly reduced"},
      {"measurement": "thickness of the muscle layer", "setting": "[4]; [9]", "result": "significantly reduced"},
      {"measurement": "thickness of the urothelium layer", "setting": "[4]; [9]", "result": "significantly reduced"},
      {"measurement": "reduction of the level of UPIII (urothelial loss)", "setting": "[5]; Western blot", "result": "inhibited"},
      {"measurement": "caspase-3 activation", "setting": "[5]; cleaved caspase-3 Western blot", "result": "inhibited"},
      {"measurement": "number of TUNEL-positive cells in the urothelium", "setting": "[5]; vs Vehicle group", "result": "significantly reduced"},
      {"measurement": "p75 expression", "setting": "[6]", "result": "significantly reduced"},
      {"measurement": "expression of COX-2, iNOS, IL-6, IL-1β, MIP-1α, MIP-1β, MIP-2α, and Gro-α", "setting": "[7]", "result": "significantly reduced"},
      {"measurement": "reduction of epidermal layer thickness compared to the Vehicle group", "setting": "[8]; Day 6", "result": "approximately 35%"},
      {"measurement": "epidermal layer thickness", "setting": "[8]; Day 6, 5 mg/kg intraperitoneally, Sham 36.6 ± 2.3, Vehicle 141.3 ± 7.5", "result": "89.8 ± 6.8", "unit": "µm"},
      {"measurement": "number of cells introduced into the dermal layer", "setting": "[8]; Day 6, skin tissue H&E", "result": "decreased to the Sham level"}
    ]}
  ]
}
